Data published in patent US12157746B2, “Tetrahydro-1H-pyrazino[2,1-a]isoindolylquinoline compounds for the treatment of autoimmune disease” (F. HOFFMANN-LA ROCHE AG, priority 2018, dated 2024).
Converted amounts (≈) assume the structure as drawn.

Legend:
[1] = target: T1, hERG K+ channel (Homo sapiens, UniProt Q12809); test: hERG channel inhibition assay; assay type: cell-based; details: patch-clamp (voltage-clamp, whole-cell); for IC50: CHO cells expressing hERG; for IC20: human, CHO cells stably expressing hERG
T1 construct: expressed in transfected cells; host or cells: CHO (Chinese hamster ovary) cells, CHOhERG
Method: hERG Channel Inhibition Assay
The hERG K^+ channels were cloned in humans and stably expressed in a CHO (Chinese hamster ovary) cell line. CHOhERG cells were used for patch-clamp (voltage-clamp, whole-cell) experiments. Cells were stimulated by a voltage pattern to activate hERG channels and conduct IKhERG currents (rapid delayed outward rectifier potassium current of the hERG channel). After the cells were stabilized for a few minutes, the amplitude and kinetics of IKhERG were recorded at a stimulation frequency of 0.1 Hz (6 bpm). Thereafter, the test compound was added to the preparation at increasing concentrations. For each concentration, an attempt was made to reach a steady-state effect, usually, this was achieved within 3-10 min at which time the next highest concentration was applied. The amplitude and kinetics of IKhERG are recorded in each concentration of the drug which were compared to the control values (taken as 100%). (references: Redfem W S, Carlsson L, Davis A S, Lynch W G, MacKenzie I, Palethorpe S, Siegl P K, Strang I, Sullivan A T, Wallis R, Camm A J, Hammond T G. 2003; Relationships between preclinical cardiac electrophysiology, clinical QT interval prolongation and torsade de pointes for a broad range of drugs: evidence for a provisional safety margin in drug development. Cardiovasc. Res. 58:32-45, Sanguinetti M C, Tristani-Firouzi M. 2006; hERG potassium channels and cardiac arrhythmia. Nature 440:463-469, Webster R, Leishman D, Walker D. 2002; Towards a drug concentration effect relationship for QT prolongation and torsades de pointes. Curr. Opin. Drug Discov. Devel. 5:116-26).

[2] = tested on: Balb/c 3T3 mouse fibroblasts; test: 3T3 in vitro phototoxicity assay; assay type: cell-based; details: Neutral Red uptake
Source text: 3T3 In Vitro Phototoxicity Assay
Phototoxicity is defined as a toxic response that is elicited after the first exposure of the skin to certain chemicals and subsequent exposure to light, or that is induced similarly by skin irradiation after systemic administration of a chemical substance. The assay used in this study is designed to detect the phototoxic potential of a chemical by using a simple in vitro cytotoxicity assay with Balb/c 3T3 mouse fibroblasts. The principle of this test is a comparison of the cytotoxicity of a chemical when tested with and without exposure to a non-toxic dose of UVA-light. Cytotoxicity is expressed as a dose dependent reduction of the growth rate of cells as determined by uptake of the vital dye Neutral Red one day after treatment.
A small amount of substance was weighed and formulated freshly in DMSO just before the start of the exposure of the cells. This stock solution or appropriate dilutions with DMSO were added to the cell suspensions to obtain the required final concentrations. All solutions were generally prepared in Eppendorf caps and discarded after use.
For this study the Neutral Red uptake (NRU) assay of Borenfreund and Puemer (Borenfreund, E, Puemer J A. Toxicity determined in vitro by morphological alterations and Neutral Red absorption. Toxicology Lett. 1985; 24:119-124) modified according to INVITTOX protocol No 78 (ERGATT/FRAME data bank of in vitro techniques in toxicology. INVITTOX PROTOCOL No 78. 3T3 NRU Phototoxicity Assay. March 1994) has been adapted to examine a possible phototoxic potential of the test item. This assay is based on the active uptake of the Neutral Red dye into the lysosomes of cultured murine fibroblasts. Because lysosomal membranes are known to be a site of action of many phototoxic compounds, this assay can provide a measure of potential for phototoxic injury.
A murine fibroblasts clone A 31 (ATCC no. CCL 163—passage No. 108) were cultured in 175 cm2 tissue culture grade flasks, containing sDMEM (Dulbecco's Minimal Essential Medium, supplemented with 10% fetal calf serum, 2 mM L-glutamine, 100 units/ml Penicillin and 100 μg/ml streptomycin) at 37° C. in a humidified atmosphere of 6% C02. Before cells approach confluence they were removed from flasks by trypsinisation. Prior to use in an assay, the cells were transferred to 96-well microtiter plates at a concentration of 1×10^4 cells/well in 100 μl volumes of sDMEM and allowed to attach for 24 h.
For incubation with murine fibroblasts, the test item was diluted in PBS/3% DMSO (detailed concentrations see in results).
Culture medium (Dulbecco's Modified Eagle Medium (DMEM), GlutaMAX (Gibco Ref 21885-025), 10% Fetal Bovine Serum (FBS) (Gibco Ref 10270-106), 100 IU/ml Penicillin and 100 μg/ml Streptomycin (Gibco Ref 15140-122)) was removed from the wells and murine fibroblasts were washed with PBS. Afterwards 100 μL of PBS/3% DMSO containing the test item was added and target cells were incubated for 1 h at 37° C. with 6% CO2.
For each test item the microtiter plates were prepared according to Table 4. “UVA plates” were exposed to approx. 5 J/cm2 UVA light, the “Dark plates” were kept in the dark and served as cytotoxicity control. Plates with chlorpromazine hydrochloride served as positive control. UV flux was measured with a UV-meter (Dr. Gröbel RM21).
Following UV irradiation, the test item was removed from the wells (one washing step with PBS) and replaced with sDMEM. Target cells were then incubated overnight at 37° C. in 6% CO2.
Each plate contained wells with cells and solvent but without test item which were either not incubated with Neutral Red solution (0% standard—S1) or were stained with Neutral Red (100% standard—S2) for calculation of the standard cell viability curve. Wells labeled with U01-U08 contained the different test item concentrations.
After the incubation the wells to be assayed were filled with 100 μL of the sDMEM containing Neutral Red. […]

T1 sequence (Q12809 whole entry): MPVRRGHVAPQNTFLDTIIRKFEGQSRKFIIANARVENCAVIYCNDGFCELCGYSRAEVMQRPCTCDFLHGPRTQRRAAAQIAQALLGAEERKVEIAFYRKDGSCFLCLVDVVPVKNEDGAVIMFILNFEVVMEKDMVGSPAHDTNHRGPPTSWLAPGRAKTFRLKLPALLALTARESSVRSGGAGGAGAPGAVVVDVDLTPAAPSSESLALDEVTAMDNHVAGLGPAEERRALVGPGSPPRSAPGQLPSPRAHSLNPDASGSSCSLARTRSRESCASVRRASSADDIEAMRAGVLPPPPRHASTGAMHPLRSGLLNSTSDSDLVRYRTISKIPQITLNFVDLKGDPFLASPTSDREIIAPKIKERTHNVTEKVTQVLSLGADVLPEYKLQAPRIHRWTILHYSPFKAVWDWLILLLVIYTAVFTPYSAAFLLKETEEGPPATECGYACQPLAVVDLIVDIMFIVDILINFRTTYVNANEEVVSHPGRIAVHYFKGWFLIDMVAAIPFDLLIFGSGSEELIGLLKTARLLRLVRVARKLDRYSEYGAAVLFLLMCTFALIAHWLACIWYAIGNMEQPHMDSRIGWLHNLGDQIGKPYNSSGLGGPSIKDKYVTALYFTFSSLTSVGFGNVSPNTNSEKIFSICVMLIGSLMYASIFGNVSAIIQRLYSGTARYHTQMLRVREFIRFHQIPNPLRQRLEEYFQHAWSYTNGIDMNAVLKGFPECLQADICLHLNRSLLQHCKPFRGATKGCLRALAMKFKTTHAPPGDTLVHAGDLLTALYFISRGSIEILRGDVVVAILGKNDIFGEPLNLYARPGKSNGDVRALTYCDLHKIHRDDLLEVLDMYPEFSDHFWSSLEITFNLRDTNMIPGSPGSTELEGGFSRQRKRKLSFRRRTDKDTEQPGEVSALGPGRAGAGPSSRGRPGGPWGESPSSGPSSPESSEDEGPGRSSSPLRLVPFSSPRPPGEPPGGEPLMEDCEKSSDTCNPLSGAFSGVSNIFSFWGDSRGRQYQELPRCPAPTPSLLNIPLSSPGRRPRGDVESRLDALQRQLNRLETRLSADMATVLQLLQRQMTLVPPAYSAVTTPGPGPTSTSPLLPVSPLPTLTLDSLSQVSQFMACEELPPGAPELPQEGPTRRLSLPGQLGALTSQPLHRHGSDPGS

| Structure (SMILES) | IC50 [1] [µM] | IC20 [1] [µM] | Phototoxicity factor ([2]; Factor=IC50(−UV)/IC50(+UV), cut-off factor >5) | IC50 ([2]; Mus musculus, BALB/c3T3, light or radiation study, with approx. 5 J/cm2 UVA light) [µg/mL] |
| --- | --- | --- | --- | --- |
| CO[C@@H]1CNC[C@@H]1Nc1ccc2c(c1)CN1[C@H](C)CN(c3ccc(C#N)c4ncccc34)C[C@H]21 [Example 60, 5-[(4R,10bS)-8-[[(3S,4R)-4-methoxypyrrolidin-3-yl]amino]-4-methyl-3,4,6,10b-tetrahydro-1H-pyrazino[2,1-a]isoindol-2-yl]quinoline-8-carbonitrile] | > 20 | > 10 |  |  |
| C[C@@H]1CN(c2ccc(C#N)c3ncccc23)C[C@@H]2c3ccc(NC[C@H]4CNCCO4)cc3CN12 [Example 59, 5-[(4R,10bS)-4-methyl-8-[[(2R)-morpholin-2-yl]methylamino]-3,4,6,10b-tetrahydro-1H-pyrazino[2,1-a]isoindol-2-yl]quinoline-8-carbonitrile] | > 20 | > 10 |  |  |
| CO[C@H]1CNC[C@@H]1N(C)c1ccc2c(c1)CN1[C@H](C)CN(c3ccc(C#N)c4ncccc34)C[C@H]21 [Example 64, 5-[(4R,10bS)-8-[[(3S,4S)-4-methoxypyrrolidin-3-yl]-methyl-amino]-4-methyl-3,4,6,10b-tetrahydro-1H-pyrazino[2,1-a]isoindol-2-yl]quinoline-8-carbonitrile] | > 20 | 8.5 |  |  |
| C[C@@H]1CN(c2ccc(C#N)c3ncccc23)C[C@@H]2c3ccc(N4C[C@H]5CNCCN5C4=O)cc3CN12 [Example 72, 5-[(4R,10bS)-8-[(8aR)-3-oxo-1,5,6,7,8,8a-hexahydroimidazo[1,5-a]pyrazin-2-yl]-4-methyl-3,4,6,10b-tetrahydro-1H-pyrazino[2,1-a]isoindol-2-yl]quinoline-8-carbonitrile] | > 20 | > 10 |  |  |
| C[C@@H]1CN(c2ccc(C#N)c3ncccc23)C[C@@H]2c3ccc(NCC4COCCN4)cc3CN12 (stereo partly drawn) [Example 57, 5-[(4R,10bS)-4-methyl-8-(morpholin-3-ylmethylamino)-3,4,6,10b-tetrahydro-1H-pyrazino[2,1-a]isoindol-2-yl]quinoline-8-carbonitrile] | > 20 | > 10 |  |  |
| [2H]c1ccc2c(N3C[C@@H](C)N4Cc5cc(N6CC7(CNCCO7)C6)ccc5[C@H]4C3)ccc(C#N)c2n1 [Example 90, 5-[(4R,10bS)-4-methyl-8-(5-oxa-2,8-diazaspiro[3.5]nonan-2-yl)-3,4,6,10b-tetrahydro-1H-pyrazino[2,1-a]isoindol-2-yl]-2-deuterio-quinoline-8-carbonitrile] |  |  | >2 | 50.6 (≈ 108 µM) |
| C[C@H]1CN(c2ccc(C#N)c3ncccc23)C[C@H]2c3ccc(N4CCNCC4)cc3CN12 [Example 2, 5-[(4S,10bR)-4-methyl-8-piperazin-1-yl-3,4,6,10b-tetrahydro-1H-pyrazino[2,1-a]isoindol-2-yl]quinoline-8-carbonitrile] | > 20 | > 10 |  |  |
| C[C@@H]1CN(c2ccc(C#N)c3ncccc23)C[C@@H]2c3ccc(NCCN4CC[C@H](O)C4)cc3CN12 [Example 68, 5-[(4R,10bS)-8-[2-[(3S)-3-hydroxypyrrolidin-1-yl]ethylamino]-4-methyl-3,4,6,10b-tetrahydro-1H-pyrazino[2,1-a]isoindol-2-yl]quinoline-8-carbonitrile] | > 20 | 5.6 |  |  |
